Laboratory results reported in patent publication US20050085554A1, “Methods of treating disease through the administration of a manzamine analog or derivative” (priority 2003, published 2005).
In brackets after ≈: the same amount, converted by molar mass. Read-outs that look alike come from different tables or passages of the source.

Experiments:
[1] = test system: Plasmodium falciparum (D6 clone); assay: Antimalarial activity in vitro, D6 clone; assay type: cell-based; details: for IC50: Plasmodium falciparum, D6
[2] = test system: P. falciparum (chlorine-resistant W2 clone); assay: Antimalarial activity in vitro, W2 clone; assay type: cell-based, Plasmodium falciparum; details: for IC50: Plasmodium falciparum
[3] = test system: methicillin-resistant Staphylococcus aureus; assay: Antibacterial activity against MRS; assay type: cell-based
[4] = test system: Staphylococcus aureus; assay: Antibacterial activity against S. aureus; assay type: cell-based; details: for IC50: Staphylococcus aureus
[5] = test system: Mycobacterium intracellulare; assay: Activity against M. intracellulare; assay type: cell-based
[6] = test system: Mycobacterium tuberculosis H37Rv; assay: In vitro antimycobacterial activity (Microplate Alamar Blue Assay), MIC; assay type: cell-based; details: for MIC: Mycobacterium tuberculosis, H37RV
[7] = test system: HIV-1LAV; assay: Anti-HIV-1 activity in PBM cells; assay type: cell-based, human immunodeficiency virus (HIV-1); details: T5
Description: Anti-HIV-1 activity was determined in PBM cells as described previously. See, Stock solutions (20 or 40 mM) of the compounds were prepared in sterile DMSO and then diluted to the desired concentration in growth medium. Cells were infected with the prototype HIV-1LAV at a multiplicity of infection of 0.1. Details on the infection of cells and assessment of antiviral effects was described previously. See, Schinazi, R. F.; McMillan, A.; Cannon, D.; Mathis, R.; Lloyd, R. M.; Peck, A.; Sommadossi, J.-P.; Clair, M. S.; Wilson, J.; Furman, P. A.; Painter G.; Choi, W.-B.; Liotta, D. C. Antimicrob. Agents Chemother. 1992, 36, 2423-2431 and Schinazi, R. F.; Sommadossi, J.-P.; Saalmann, V.; Cannon, D. L.; Xie, M.-Y.; Hart, G. C.; Smith, G. A.; Hahn, E. F. Antimicrob. Agents Chemother. 1990, 34, 1061-1067.

[8] = test system: Leishmania donovani; assay: Antileishmanial activity in vitro; assay type: cell-based; details: T4
[9] = test system: Cryptococcus neoformans; assay: Antifungal activity against Cryptococcus neoformans; assay type: cell-based; details: T5, NA = not active
[10] = T4, NA = not active, read-out: Plasmodium falciparum (D6 clone) IC 50
[11] = W2, read-out: P. falciparum (chlorine-resistant W2 clone) IC 50
[12] = Mycobacterium intracellulare, T5, NA = not active, read-out: IC50 M. intracellulare
[13] = T4, read-out: Mycobacterium Tuberculosis (H37Rv) MIC

CCN(CC)CCCC(C)Nc1ccnc2cc(Cl)ccc12 (centres unmarked) [Chloroquine, reference compound]
IC50 [1, 10]: 0.0155 µg/mL (≈ 0.0485 µM) | IC50 ([1]; T6): 0.01 µg/mL (≈ 0.0313 µM) | IC50 [2, 11]: 0.17 µg/mL (≈ 0.531 µM) | IC50 ([2]; W2, T6, read-out: P. falciparum (W2 clone) IC50): 0.14 µg/mL (≈ 0.438 µM)

O=C(O)c1cn(C2CC2)c2cc(N3CCNCC3)c(F)cc2c1=O [Ciprofloxacin, reference compound]
IC50 ([3]; Staphylococcus aureus, T5, NA = not active, read-out: Antibacterial IC50 MRS): 0.1 µg/mL (≈ 0.302 µM) | MIC ([3]; Staphylococcus aureus, T6): 0.31 µg/mL (≈ 0.936 µM) | IC50 ([3]; T6, MRS: methicillin-resistant Staphylococcus aureus, read-out: MRS IC50): 0.1 µg/mL (≈ 0.302 µM) | IC50 ([4]; T5, NA = not active, read-out: Antibacterial IC50 S. aureus): 0.1 µg/mL (≈ 0.302 µM) | IC50 ([4]; T6, read-out: Staphylococcus aureus IC50): 0.1 µg/mL (≈ 0.302 µM) | IC50 [5, 12]: 0.25 µg/mL (≈ 0.754 µM) | MIC ([5]; Mycobacterium intracellulare, T6): 0.63 µg/mL (≈ 1.9 µM) | IC50 ([5]; Mycobacterium intracellulare, T6, read-out: Mycobacterium intracellulare IC50): 0.25 µg/mL (≈ 0.754 µM)

O=CC1=C[C@@]2(O)CC/C=C\CCCCN3CC[C@@H]1[C@]1(CC4/C=C\CCCCN4[C@H]12)C3 (some centres unmarked) [Ircinal A]
Mycobacterium Tuberculosis (H37Rv) MIC ([6]; T4): 30.2 µg/mL | EC50 [7]: 6.8 µM | IC50 M. intracellulare ([5]; T5, NA = not active): 50 µg/mL (≈ 122 µM)

OCC1=C[C@]2(O)CC/C=C\CCCCN3CC[C@@H]1[C@@]1(C[C@H]4/C=C\CCCCN4[C@@H]12)C3 [Ircinol A]
Plasmodium falciparum (D6 clone) IC 50 ([1]; T4, NA = not active): 2400 ng/mL | Mycobacterium Tuberculosis (H37Rv) MIC ([6]; T4): 1.93 µg/mL | Antibacterial IC50 MRS ([3]; T5, NA = not active): 30 µg/mL | P. falciparum (chlorine-resistant W2 clone) IC 50 ([2]; T4, NA = not active): 3100 ng/mL | EC50 [7]: 4.3 µM | IC50 M. intracellulare ([5]; T5, NA = not active): 50 µg/mL (≈ 121 µM)

O=C1CCCN2[C@@H](CC1)C[C@]13CN4CCCC/C=C\CC[C@](O)(C=C(c5nccc6c5[nH]c5ccccc56)[C@@H]1CC4)[C@H]23 [Manzamine E]
Plasmodium falciparum (D6 clone) IC 50 ([1]; T4, NA = not active): 3400 ng/mL | Mycobacterium Tuberculosis (H37Rv) MIC ([6]; T4): 3.76 µg/mL | Leishmania donovani IC 50 [8]: 3.8 µg/mL | Leishmania donovani IC 90 [8]: 6.8 µg/mL | P. falciparum (chlorine-resistant W2 clone) IC 50 ([2]; T4, NA = not active): 4760 ng/mL | EC50 [7]: 13.1 µM | IC50 M. intracellulare ([5]; T5, NA = not active): 12.5 µg/mL (≈ 22.1 µM)

O=C1CCCN2[C@@H](CC1)C[C@]13CN4CCCC/C=C\CC[C@](O)(C=C(c5nccc6c5[nH]c5c(O)cccc56)C1CC4)[C@H]23 (some centres unmarked) [Manzamine F]
Plasmodium falciparum (D6 clone) IC 50 ([1]; T4, NA = not active): 780 ng/mL | Plasmodium falciparum (D6 clone) IC 50 ([1]; T8, NA not defined): 780 ng/mL | Mycobacterium Tuberculosis (H37Rv) MIC ([6]; T4): 2.56 µg/mL | Leishmania donovani IC 50 [8]: 4.2 µg/mL | Leishmania donovani IC 90 [8]: 7 µg/mL | Antifungal IC50 C. neoformans [9]: 6.5 µg/mL | P. falciparum (chlorine-resistant W2 clone) IC 50 ([2]; T4, NA = not active): 1700 ng/mL | P. falciparum (chlorine-resistant W2 clone) IC 50 ([2]; T8): 1700 ng/mL | EC50 [7]: 7.3 µM | IC50 M. intracellulare ([5]; T5, NA = not active): 6.25 µg/mL (≈ 10.8 µM)

O[C@]12C=C(c3nccc4c3[nH]c3ccccc34)[C@@H]3CCN(CCCC/C=C\CC1)C[C@@]31CC/C=C\CCCCN[C@H]12 [Manzamine J]
Plasmodium falciparum (D6 clone) IC 50 ([1]; T4, NA = not active): 1300 ng/mL | Mycobacterium Tuberculosis (H37Rv) MIC ([6]; T4): 1.7 µg/mL | Leishmania donovani IC 50 [8]: 25 µg/mL | Leishmania donovani IC 90 [8]: 45 µg/mL | P. falciparum (chlorine-resistant W2 clone) IC 50 ([2]; T4, NA = not active): 750 ng/mL

Oc1ccc2[nH]c3c(C4=C[C@@]5(O)CC/C=C\CCCCN6CC[C@@H]4[C@@]4(C6)C[C@@]67CC[C@@H](CCCN6[C@H]45)O7)nccc3c2c1 [Manzamine X]
Plasmodium falciparum (D6 clone) IC 50 ([1]; T4, NA = not active): 950 ng/mL | Antibacterial IC50 MRS ([3]; T5, NA = not active): 0.75 µg/mL | Antibacterial IC50 S. aureus ([4]; T5, NA = not active): 1.0 µg/mL | Leishmania donovani IC 50 [8]: 5.7 µg/mL | Leishmania donovani IC 90 [8]: 11 µg/mL | Antifungal IC50 C. neoformans [9]: 3.0 µg/mL | P. falciparum (chlorine-resistant W2 clone) IC 50 ([2]; T4, NA = not active): 2000 ng/mL | EC50 [7]: 2.3 µM | IC50 M. intracellulare ([5]; T5, NA = not active): 1.5 µg/mL (≈ 2.58 µM)

N=C(N)c1ccc(OCCCCCOc2ccc(C(=N)N)cc2)cc1 [Pentamidine, reference compound]
IC50 ([8]; Leishmania donovani, read-out: Leishmania donovani IC 50): 2.1 µg/mL (≈ 6.17 µM) | IC90 ([8]; Leishmania donovani, read-out: Leishmania donovani IC 90): 10 µg/mL (≈ 29.4 µM)

CO[C@H]1/C=C/O[C@@]2(C)Oc3c(C)c(O)c4c(O)c(c(/C=N/N5CCN(C)CC5)c(O)c4c3C2=O)NC(=O)/C(C)=C\C=C\[C@H](C)[C@H](O)[C@@H](C)[C@@H](O)[C@@H](C)[C@H](OC(C)=O)[C@@H]1C [Rifampin, reference compound]
MIC [6, 13]: 0.5 µg/mL (≈ 0.608 µM) | MIC ([6]; T6, read-out: Mycobacterium tuberculosis MIC): 0.24 µg/mL (≈ 0.292 µM) | MIC ([6]; rifampin = positive control, read-out: MIC against Mycobacterium tuberculosis (Mtb)): 0.16 µg/mL (≈ 0.194 µM)

O[C@@H]1CCCN2CC[C@@H]1O[C@@]13CC[C@@H](OC[C@]45CN6CCCC/C=C\CC[C@](O)(C=C(c7nccc8c7[nH]c7ccccc78)[C@@H]4CC6)[C@H]25)[C@@H](O)CCN1[C@@H]1[C@]2(CN4CCCC/C=C\CC[C@]1(O)C=C(c1nccc5c1[nH]c1ccccc15)[C@@H]2CC4)C3 [neo-Kauluamine]
IC50 [1, 10]: 1.7 µg/mL (≈ 1.46 µM) | MIC [6, 13]: 2 µg/mL (≈ 1.72 µM) | IC50 ([9]; Cryptococcus neoformans, read-out: Antifungal IC50 C. neoformans): 3 µg/mL (≈ 2.58 µM) | IC50 [2, 11]: 2.8 µg/mL (≈ 2.41 µM) | IC50 [5, 12]: 3 µg/mL (≈ 2.58 µM)
